Values joined by “and” are separate entries in the source; they are usually repeats but may differ in a detail not shown here. Equal entries are not always repeated.
Columns and labels:
Format in all cases: binding
CDK2 = CDK2 (Homo sapiens, UniProt P24941); test: Intracellular residence time by cellular washout, CDK2; conditions: for CDK2 occupancy after compound washout (%): Panel B;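 for all read-outs here: NanoBRET live-cell washout assay after 2 h compound pretreatment at 37 °C, rising energy-transfer probe signal tracks loss of CDK2 engagement, compared against DMSO vehicle cells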
CDK7 [1] = target: T1, CDK7 (Homo sapiens, UniProt P50613); test: Intracellular residence time by cellular washout, CDK7; conditions: for CDK7: Panel B
T1 sequence (P50613 whole entry): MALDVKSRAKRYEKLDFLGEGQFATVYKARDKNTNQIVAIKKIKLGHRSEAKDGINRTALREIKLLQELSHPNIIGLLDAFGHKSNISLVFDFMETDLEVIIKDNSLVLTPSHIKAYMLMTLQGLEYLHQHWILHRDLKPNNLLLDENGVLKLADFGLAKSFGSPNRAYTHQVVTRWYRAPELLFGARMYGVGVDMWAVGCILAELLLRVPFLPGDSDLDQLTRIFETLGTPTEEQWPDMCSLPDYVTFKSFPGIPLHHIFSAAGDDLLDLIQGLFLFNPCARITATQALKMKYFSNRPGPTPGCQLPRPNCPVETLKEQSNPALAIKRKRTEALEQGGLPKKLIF
Description: However, residence times for this and many of the other CDKi’s in our panel have not been reported in cell-free or cellular contexts. […] This condition was selected to ensure adequate target occupancy prior to compound washout. Residence time was then evaluated by a rapid compound washout procedure, followed by addition of energy transfer probe 1. Under these conditions, the rate of the energy transfer signal increase serves as a direct proxy for the loss of the target-CDKi interaction[18],[56],[57].
Residence time was qualitatively assessed via a cellular washout approach, where delayed energy probe association is used as an indirect measurement for the durability of target/compound engagement. […] After 2 h of incubation at 37 °C, the medium was aspirated from the cells and replaced with fresh OptiMEM containing NanoBRET NanoGlo Substrate and Extracellular NanoLuc Inhibitor. […] Occupancy values were plotted as a function of time.
Supplementary Figure 22. […] Residence […]
time was qualitatively assessed by cellular washout as described in the method details and compared to association of energy transfer probe in cells treated with DMSO vehicle. […]
engagement at CDK6 and kinetic selectivity for CDK6 compared to CDK2 and CDK7. BRET ratios were normalized between the maximum BRET value vs BRET value in the absence of tracer. Kinetic traces and individual points are mean of 3 independent experiments ± S.E.M (n = 3). Source data are provided as a […]

CDK7 [2] = target: T1, CDK7; test: Real-time analysis of engagement (kobs, IC50 vs time) in live cells, CDK7
Description: Cells were pre-equilibrated with energy transfer probe for 40 min prior to addition of […]
intervals at 25 °C (temperature reduced to avoid evaporation of cell culture medium). To quantify […]
vs time. Apparent association rate was also plotted as k obs vs [RGB286638], where kobs was determined using the one phase association equation (Supplementary Equation 2) in graphpad prism.
Y=Y0 + (Plateau-Y0)*(1-e-K*X) (2) where Y = mBRET ratio, X = time, and K = the observed rate constant ( kobs). […]
CDK7 (left) and CDK6 (right) to generate kobs. Kinetic traces were collected in a single biological experiment (n = 1), where individual data points represent the mean ± S.D of technical triplicates (n = 3).
(B) kobs values (n = 1) were generated from panel A by fitting Supplementary Equation 2, and were then […]
collected at each timepoint represent technical singlicates (n = 1 ). Source data are provided as a Source

[3] = Time (Min) 32.9743, listed as RGB-286638
[4] = LOG10([THZ1]) (LOG10(µM)) 0.346787
[5] = LOG10([THZ1]) (LOG10(µM)) 0.823909
[6] = LOG10([THZ1]) (LOG10(µM)) 1.30103, Replicates 1 and 2
[7] = LOG10([THZ1]) (LOG10(µM)) -0.60746
[8] = LOG10([THZ1]) (LOG10(µM)) -1.08458
[9] = LOG10([THZ1]) (LOG10(µM)) -1.5617
[10] = LOG10([THZ1]) (LOG10(µM)) -2.03882
[11] = LOG10([THZ1]) (LOG10(µM)) -2.51594
[12] = LOG10([THZ1]) (LOG10(µM)) -2.99306
[13] = LOG10([THZ1]) (LOG10(µM)) -3.47018
[14] = LOG10([THZ1]) (LOG10(µM)) -3.9473

## COCCN1CCN(Cc2ccc(-c3n[nH]c4c3C(=O)c3c(NC(=O)NN5CCOCC5)cccc3-4)cc2)CC1 [RGB286638]
CDK2; Time (Min) 0
  CDK2 occupancy after compound washout (%): 86.242 and 90.073 and 94.3307
CDK2; Time (Min) 2.97013
  CDK2 occupancy after compound washout (%): 79.5117 and 80.9002 and 88.1102
CDK2; Time (Min) 5.97045
  CDK2 occupancy after compound washout (%): 73.673 and 73.2847 and 82.0472
CDK2; Time (Min) 8.97078
  CDK2 occupancy after compound washout (%): 68.5138 and 66.4964 and 75.5906
CDK2; Time (Min) 11.9714
  CDK2 occupancy after compound washout (%): 64.0977 and 61.0706 and 70.5249
CDK2; Time (Min) 14.9718
  CDK2 occupancy after compound washout (%): 59.9363 and 55.5961 and 65.5381
CDK2; Time (Min) 17.9723
  CDK2 occupancy after compound washout (%): 56.1571 and 50.7299 and 61.601
CDK2; Time (Min) 20.9723
  CDK2 occupancy after compound washout (%): 52.6752 and 47.2263 and 57.3753
CDK2; Time (Min) 23.9731
  CDK2 occupancy after compound washout (%): 49.9788 and 43.4307 and 53.9895
CDK2; Time (Min) 26.9737
  CDK2 occupancy after compound washout (%): 47.0913 and 40.219 and 51.2336
CDK2; Time (Min) 29.9742
  CDK2 occupancy after compound washout (%): 44.5011 and 36.91 and 47.9003
CDK2; [3]
  CDK2 occupancy after compound washout (%): 42.1444 and 34.1363 and 45.2756
CDK2; Time (Min) 35.9749
  CDK2 occupancy after compound washout (%): 39.724 and 31.4599 and 43.3596
CDK2; Time (Min) 38.9753
  CDK2 occupancy after compound washout (%): 37.5584 and 29.5864 and 40.3675
CDK2; Time (Min) 41.9753
  CDK2 occupancy after compound washout (%): 36.0722 and 27.129 and 39.4488
CDK2; Time (Min) 44.9758
  CDK2 occupancy after compound washout (%): 33.3121 and 25.1582 and 36.6667
CDK2; Time (Min) 47.9761
  CDK2 occupancy after compound washout (%): 31.6136 and 23.6253 and 35.2756
CDK2; Time (Min) 50.9766
  CDK2 occupancy after compound washout (%): 29.9788 and 21.8978 and 32.9134
CDK2; Time (Min) 53.9771
  CDK2 occupancy after compound washout (%): 27.983 and 20.1946 and 30.7874
CDK2; Time (Min) 56.9772
  CDK2 occupancy after compound washout (%): 27.3885 and 18.0049 and 30.0525
CDK2; Time (Min) 59.9777
  CDK2 occupancy after compound washout (%): 25.9023 and 17.2749 and 28.5564
CDK2; Time (Min) 62.9781
  CDK2 occupancy after compound washout (%): 24.4161 and 15.8151 and 27.3753
CDK2; Time (Min) 65.9785
  CDK2 occupancy after compound washout (%): 22.9299 and 14.3552 and 26.2992
CDK2; Time (Min) 68.9792
  CDK2 occupancy after compound washout (%): 21.4437 and 13.6253 and 25.1706
CDK2; Time (Min) 71.9792
  CDK2 occupancy after compound washout (%): 20.5945 and 12.1655 and 24.252
CDK2; live cells, probe 1 at 1 µM
  CDK2 occupancy after 2 h of analysis following compound washout: fully dissociated
CDK7 [1]; Time (Min) 2.97013
  CDK7: 63.5317 and 37.2109 and 59.6726
CDK7 [1]; Time (Min) 5.97045
  CDK7: 70.1207 and 47.8912 and 70.0893
CDK7 [1]; Time (Min) 8.97078
  CDK7: 76.2242 and 55.3742 and 82.1429
CDK7 [1]; Time (Min) 11.9714
  CDK7: 80.0388 and 60.068 and 80.8036
CDK7 [1]; Time (Min) 14.9718
  CDK7: 83.1599 and 63.8775 and 88.244
CDK7 [1]; Time (Min) 17.9723
  CDK7: 84.339 and 67.0068 and 93.006
CDK7 [1]; Time (Min) 20.9723
  CDK7: 86.0036 and 69.5238 and 91.8155
CDK7 [1]; Time (Min) 23.9731
  CDK7: 87.5988 and 70.4762 and 91.0714
CDK7 [1]; Time (Min) 26.9737
  CDK7: 87.252 and 72.2449 and 92.2619
CDK7 [1]; Time (Min) 29.9742
  CDK7: 89.6796 and 72.7211 and 93.4524
CDK7 [1]; Time (Min) 32.9743
  CDK7: 74.1497
CDK7 [1]; [3]
  CDK7: 87.9456 and 99.1071
CDK7 [1]; Time (Min) 35.9749
  CDK7: 89.8183 and 75.5102 and 100.298
CDK7 [1]; Time (Min) 38.9753
  CDK7: 90.3731 and 75.102 and 97.619
CDK7 [1]; Time (Min) 41.9753
  CDK7: 91.4829
CDK7 [1]; Time (Min) 236.996
  CDK7: 85.5181 and 68.5714 and 62.6488
CDK7 [1]; Time (Min) 239.996
  CDK7: 81.0792 and 69.4558 and 75.1488
CDK7 [1]; Time (Min) 242.996
  CDK7: 82.6744 and 69.7959 and 76.3393
CDK7 [1]; Time (Min) 245.996
  CDK7: 82.397 and 69.0476 and 68.4524
CDK7 [1]; Time (Min) 248.996
  CDK7: 81.4954 and 70.068 and 77.0833
CDK7 [1]; Time (Min) 251.996
  CDK7: 82.3276 and 68.6395 and 82.7381
CDK7 [1]; Time (Min) 254.996
  CDK7: 80.5243 and 67.551 and 74.1071
CDK7 [1]; Time (Min) 257.996
  CDK7: 85.2407 and 70.4082 and 62.2024
CDK7 [1]; Time (Min) 260.996
  CDK7: 83.0212 and 68.0272 and 80.6548
CDK7 [1]; Time (Min) 263.996
  CDK7: 83.8535 and 68.6395 and 70.6845
CDK7 [1]; Time (Min) 266.996
  CDK7: 68.0272
CDK7 [1]; Time (Min) 266.996, listed as RGB-286638
  CDK7: 83.7842 and 91.369
CDK7 [1]; Time (Min) 269.996
  CDK7: 81.2873 and 68.9116 and 72.9167
CDK7 [1]; Time (Min) 272.996
  CDK7: 80.8711 and 70.3401 and 74.8512
CDK7 [1]; Time (Min) 275.996
  CDK7: 78.9985 and 67.0748 and 80.0595
CDK7 [1]; Time (Min) 278.996
  CDK7: 80.5243 and 67.8231 and 80.6548
CDK7 [1]; Time (Min) 281.996
  CDK7: 80.1776 and 69.4558 and 75
CDK7 [1]; Time (Min) 284.996
  CDK7: 78.513 and 68.5034 and 75.2976
CDK7 [1]; Time (Min) 287.996
  CDK7: 79.8308 and 68.2993 and 76.6369
CDK7 [1]; Time (Min) 290.996
  CDK7: 80.5243 and 69.932 and 91.2202
CDK7 [1]; Time (Min) 293.996
  CDK7: 78.9985 and 67.9592 and 82.2917
CDK7 [1]; live cells, probe 1 at 1 µM
  CDK7 occupancy after 2 h of analysis following compound washout: fully dissociated

## CN(C)C/C=C/C(=O)Nc1ccc(C(=O)Nc2cccc(Nc3ncc(Cl)c(-c4c[nH]c5ccccc45)n3)c2)cc1 [THZ1]
CDK7 [2]; [4]
  mBRET values, 2h: 8.56 mBRET and 5.32 mBRET
  mBRET values, 6h: 7.65 mBRET and 4.87 mBRET
CDK7 [2]; [5]
  mBRET values, 2h: 7.68 mBRET and 4.86 mBRET
  mBRET values, 6h: 7.21 mBRET and 4.56 mBRET
CDK7 [2]; [6]
  mBRET values, 2h: 6.67 mBRET and 4.16 mBRET
  mBRET values, 6h: 6.77 mBRET and 4.18 mBRET
CDK7 [2]; [7]
  mBRET values, 2h: 15 mBRET and 7.79 mBRET
  mBRET values, 6h: 8.54 mBRET and 5.25 mBRET
CDK7 [2]; [8]
  mBRET values, 2h: 16.83 mBRET and 10.6 mBRET
  mBRET values, 6h: 9.55 mBRET and 5.83 mBRET
CDK7 [2]; [9]
  mBRET values, 2h: 18.12 mBRET and 11.5 mBRET
  mBRET values, 6h: 13.84 mBRET and 8.78 mBRET
CDK7 [2]; [10]
  mBRET values, 2h: 20.68 mBRET and 12.8 mBRET
  mBRET values, 6h: 18.55 mBRET and 12 mBRET
CDK7 [2]; [11]
  mBRET values, 2h: 20.88 mBRET and 13.4 mBRET
  mBRET values, 6h: 19.6 mBRET and 13.1 mBRET
CDK7 [2]; [12]
  mBRET values, 2h: 20.48 mBRET and 13.4 mBRET
  mBRET values, 6h: 19.14 mBRET and 12.9 mBRET
CDK7 [2]; [13]
  mBRET values, 2h: 19.82 mBRET and 13.5 mBRET
  mBRET values, 6h: 18.6 mBRET and 13.6 mBRET
CDK7 [2]; [14]
  mBRET values, 2h: 20.06 mBRET and 13.5 mBRET
  mBRET values, 6h: 19.78 mBRET and 13.4 mBRET
CDK7 [2]; LOG10([THZ1]) (LOG10(µM)) -0.13033
  mBRET values, 6h: 8.08 mBRET and 4.82 mBRET

Reference: publication PMC7265341, “Quantifying CDK inhibitor selectivity in live cells” (Nature Communications, 2020)
